Measurements: BindingDB's records for doi:10.1021/jm00381a012 (1985)

Target: T1, Angiotensin-converting enzyme (Oryctolagus cuniculus, UniProt P12822)
T1 sequence (P12822 whole entry): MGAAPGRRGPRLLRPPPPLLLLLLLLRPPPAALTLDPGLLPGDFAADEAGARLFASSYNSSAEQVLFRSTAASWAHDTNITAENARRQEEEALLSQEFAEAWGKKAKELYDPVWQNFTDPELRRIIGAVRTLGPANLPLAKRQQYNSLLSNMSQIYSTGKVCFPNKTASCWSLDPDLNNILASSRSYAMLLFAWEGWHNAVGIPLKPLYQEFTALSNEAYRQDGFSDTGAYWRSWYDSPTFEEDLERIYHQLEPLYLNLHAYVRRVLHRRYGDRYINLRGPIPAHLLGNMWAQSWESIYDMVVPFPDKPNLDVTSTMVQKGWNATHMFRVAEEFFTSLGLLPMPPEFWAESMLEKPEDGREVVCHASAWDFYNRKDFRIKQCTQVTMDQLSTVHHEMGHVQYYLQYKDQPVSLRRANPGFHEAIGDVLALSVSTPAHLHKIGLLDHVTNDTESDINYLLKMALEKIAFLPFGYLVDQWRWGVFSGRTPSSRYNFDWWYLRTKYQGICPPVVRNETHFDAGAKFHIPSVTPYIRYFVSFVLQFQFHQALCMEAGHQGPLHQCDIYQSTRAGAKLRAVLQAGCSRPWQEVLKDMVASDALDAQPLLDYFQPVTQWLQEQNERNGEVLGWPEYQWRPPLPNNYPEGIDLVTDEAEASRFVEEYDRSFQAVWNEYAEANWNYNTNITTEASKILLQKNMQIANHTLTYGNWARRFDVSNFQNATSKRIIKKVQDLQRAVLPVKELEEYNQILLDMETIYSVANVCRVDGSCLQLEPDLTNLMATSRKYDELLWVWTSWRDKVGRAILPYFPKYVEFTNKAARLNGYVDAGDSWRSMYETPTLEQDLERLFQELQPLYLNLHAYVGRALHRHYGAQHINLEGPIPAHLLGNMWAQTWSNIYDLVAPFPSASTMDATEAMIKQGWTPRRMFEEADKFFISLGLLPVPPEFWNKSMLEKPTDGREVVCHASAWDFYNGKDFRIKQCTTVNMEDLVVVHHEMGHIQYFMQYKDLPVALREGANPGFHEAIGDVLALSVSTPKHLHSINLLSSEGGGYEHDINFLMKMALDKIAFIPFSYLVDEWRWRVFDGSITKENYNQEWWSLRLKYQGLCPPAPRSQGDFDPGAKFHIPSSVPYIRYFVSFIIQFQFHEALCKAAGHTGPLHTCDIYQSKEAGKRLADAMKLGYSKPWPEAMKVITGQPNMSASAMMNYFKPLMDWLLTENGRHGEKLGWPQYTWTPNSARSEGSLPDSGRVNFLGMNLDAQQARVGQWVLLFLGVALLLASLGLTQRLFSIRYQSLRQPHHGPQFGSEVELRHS
Assay: ChEBML_34797

IC50, > 100 µM:
O=C(O)CN(C(=O)c1ccc(Cl)cc1S)C1CCCC1, CC(C)(C)C(=O)Sc1ccccc1C(=O)N(CC(=O)O)C1CCCC1, CC(=O)Sc1c(C(=O)N(CC(=O)O)C2CCCC2)cccc1C(C)C
